Laboratory results as given in US20100311714A1, “1H-IMIDAZO[4,5-c]QUINOLINONE COMPOUNDS” (priority 2009, published 2010).
Like-named read-outs stand apart in the source and are kept apart here.

Assays:
[1] = test system: S6 Ribosomal Protein phosphorylation Ser235/236 in TSC1 null mouse embryo fibroblast (MEF) cells; experiment: Reverse protein array, S6 Ribosomal Protein phosphorylation in TSC1 null MEF cells; format: cell-based; settings: 1 h, TSC1-/- MEFs, 60 minutes
Method: TSC1−/− MEFs cells (provided by D. Kwiatkowski), were cultivated in Dulbecco's modified Eagle's medium (DMEM high Glucose, GIBCO, cat. No. 41956-039) supplemented with 10% heat inactivated fetal bovine calf serum (Amimed, cat. No. 2-01F16-I), 1% L-Glutamine (Invitrogen, cat. No. 25030-02), 1% penicillin-streptomycin (GIBCO, cat. No. 15140-114) at 37° C. in a 5% CO2 and 95% relative humidity atmosphere incubator.
The TSC1−/− cells were trypsinized and counted with a CASY TT cell counter (Schärfe System GmbH, Reutlingen Germany). The cells were diluted in fresh DMEM complete medium and 0.75×10^4 cells/150 μl/well seeded in 96-well TPP-tissue culture plates (TPP, cat. No. 92096). The plates were incubated at 37° C. and 5% CO2 under humidified condition for at least 20 h. Working solutions were prepared freshly as serial 8 step dilutions (vol/vol) in DMSO on the day of the experiment. The working solutions were further diluted 1/5000 in cell culture medium to get final compound concentrations of […]. The final DMSO concentration was kept constant at 0.02%. cell culture medium containing 0.02% DMSO was used as vehicle treatment control. Post incubation, the cells were treated with the serial compound dilution. 50 μl of the compound medium mixture was added to the wells containing cells and 150 μl DMEM medium and incubated for 60 minutes (37° C., 5% CO2). After 60 minutes of incubation, the medium mixture was quickly removed by aspiration. For cell lysis, a mixture of 10% CLB1 CeLyA lysis buffer (Zeptosens, cat. No. 9000), 90% CSBL1 CeLyA spotting buffer (Zeptosens, cat. No. 9020) was freshly prepared and supplemented with 1% Octyl β-D-glucopyranoside (SIGMA, cat. No. 08001-5G) and 1 mM Na-Orthovanadate (Sigma, cat No. S-6508). 50 μl of the described lysis buffer mix was added to each well, followed by 10 minutes of incubation on ice. After an additional freeze-thaw cycle, another 50 μl of the lysis buffer mix without Octyl β-D-glucopyranoside was added to the wells, and 90 μl of the cell lysate was transferred to a 96-well V-bottom plate (Fisher Scientific, cat. No. 6067Y), followed by a centrifugation step (5 min, 1500 rpm at 19° C. in an Eppendorf 5810R centrifuge) to remove the unlysed cell debris.
The spotting of the chips follows the previous described method.
The signal detection and the data analysis follows the previous described method using the pS6 ribosomal protein Ser235/236 (CST, cat. No. #2211) as a primary antibody.

[2] = test system: PKB Ser473 phosphorylation in Rat1-myr-HA-p110 beta cells; experiment: Reverse protein array, PKB Ser473 phosphorylation in Rat1-myr-HA-p110 beta cells; format: cell-based; settings: Rattus norvegicus, 0.5 h, 30 minutes compound incubation, read-out: p-PKB/IC50_beta
Method: (§1) No. 15140-114) and 10 μg/ml Puromycine (Sigma, cat. No. P9620).
(§2) The Rat1-myr-HA-p110 alpha, beta and delta cells were trypsinized and counted with a CASY TT cell counter (Schärfe System GmbH, Reutlingen Germany). The cells were diluted in fresh DMEM complete medium and 3×10^4 cells/150 μl/well seeded in 96-well TPP-tissue culture plates (TPP, cat. No. 92096). The plates were incubated at 37° C. and 5% CO2 under humidified condition for at least 20 h. Compound of formula I working solutions were prepared freshly as serial 8 step dilutions (vol/vol) in DMSO on the day of the experiment. The working solutions were further diluted 1/500 in cell culture medium to get final compound concentrations of 10, 3.333, 1.111, 0.370, 0.123, 0.041, 0.014, 0.005 μM. The final DMSO concentration was kept constant at 0.2%. cell culture medium containing 0.2% DMSO was used as vehicle treatment control. Post incubation, the cells were treated with the serial compound dilution. 50 μl of the compound medium mixture was added to the wells containing cells and 150 μl DMEM medium and incubated for 30 minutes (37° C., 5% CO2). After 30 minutes of incubation, the medium mixture was quickly removed by aspiration. For cell lysis, a mixture of 10% CLB1 CeLyA lysis buffer (Zeptosens, cat. No. 9000), 90% CSBL1 CeLyA spotting buffer (Zeptosens, cat. No. 9020) was freshly prepared and supplemented with 1% Octyl β-D-glucopyranoside (SIGMA, cat. No. 08001-5G) and 1 mM Na-Orthovanadate (Sigma, cat No. S-6508). 50 μl of the described lysis buffer mix was added to each well, followed by 10 minutes of incubation on ice. After an additional freeze-thaw cycle, another 50 μl of the lysis buffer mix without Octyl β-D-glucopyranoside was added to the wells, and 90 μl of the cell lysate was transferred to a 96-well V-bottom plate (Fisher Scientific, cat. No. 6067Y), followed by a centrifugation step (5 min, 1500 rpm at 19° C. in an Eppendorf 5810R centrifuge) to remove the unlysed cell debris.
(§3) The samples were spotted onto ZeptoMARK® PWG protein microarray chips (Zeptosens, Witterswil, Switzerland) with the piezoelectric microdispense-based, non-contact Nano-Plotter 2.1 (GeSiM, Grosserkmannsdorf, Germany). Each sample was spotted at 4 different sample concentrations (d1=100%, d2=75%, d3=50%, d4=25%) by diluting the cell lysate with the corresponding volume of lysis buffer mix. After spotting the ZeptoMARK® protein microarrays, the chips are incubated for 1 hour at 37° C. To receive a uniform blocking result, the CeLyA blocking buffer BB1 (Zeptosens, cat. No. 9040) is administered via an ultrasonic nebulizer. After 20 minutes of blocking the chips are extensively rinsed with deionized water (Milli-Q quality, 18MΩ×cm) and dried in a nitrogen air flow.
(§4) After the sample spotting and blocking procedure, the ZeptoMARK® chips were transferred to the ZeptoCARRIER (Zeptosens, cat. No. 1100), whose six flow cells individually address the six arrays on a chip, and washed twice with 200 μl CAB1 CeLyA assay buffer (Zeptosens, cat. No. 9032). The assay buffer was then aspirated and each compartment incubated with 100 μl of the primary target antibody (pAkt Ser473; CST#9271) at RT over night. Post incubation, the primary antibody was removed, the arrays washed twice with CAB1 buffer and further incubated with 100 μl of Alexa fluor 647-labeled anti rabbit IgG Fab fragments (Invitrogen; #Z25305) for one hour at RT in the dark. After incubation, the arrays were washed twice with 200 μl CAB1 buffer. The fluorescence of the target-bound Fab fragments is read out on the ZeptoReader (Zeptosens, Witterswil, Switzerland) using a laser (excitation wavelength 635 nm) and a CCD camera. The fluorescence signal was assessed with exposure times of 1, 3, 5 and 10 seconds, depending on the intensity of the signal. The resulting four images taken per array are stored as 16-bit TIF files. […]

[3] = Parallel Artificial Membrane Permeability Assay (PAMPA) at pH 6.8; format: physicochemical
Text: (§5) The physicochemical properties of relevance for the absorption of the compound, such as the solubility and the membrane permeability, especially at a pH close to neutral pH can be measured using the procedure as described by L. ZHOU et al. in JOURNAL OF PHARMACEUTICAL SCIENCES, VOL. 96, NO. 11, p. 3052-3071 (2007) for the solubility at pH 6.8 and the procedure as described by F. Wohnsland and B. Faller in Journal of Medicinal Chemistry Vol 44, p. 923-930 (2001) for the Parallel Artificial Membrane Permeability Assay (PAMPA) at pH 6.8.
The following permeability log Pe was measured for compound of formula (I) as exemplified below: […]

[4] = test system: PKB Ser473 phosphorylation in Rat1-myr-HA-p110 delta cells; experiment: Reverse protein array, PKB Ser473 phosphorylation in Rat1-myr-HA-p110 delta cells; format: cell-based; settings: Rattus norvegicus, 0.5 h, 30 minutes compound incubation, read-out: p-PKB/IC50_delta
Method: as §1, §2, §3, §4

[5] = test system: PKB Ser473 phosphorylation in Rat1-myr-HA-p110 alpha cells; experiment: Reverse protein array, PKB Ser473 phosphorylation in Rat1-myr-HA-p110 alpha cells; format: cell-based; settings: Rattus norvegicus, 0.5 h, 30 minutes compound incubation, read-out: p-PKB/IC50_alpha
Method: as §1, §2, §3, §4

[6] = High-throughput equilibrium solubility at pH 6.8; format: physicochemical; settings: pH 6.8, aqueous buffer, thermodynamic from solid; read-out: HT-Eq Sol/pH 6.8
Text: as §5

Row | SMILES | IC50 [2] [nM] | HT-Perm logPe pH6.8 [3] | IC50 [4] [nM] | IC50 [5] [nM] | HT-perm/logPe pH6.8 [3] | solubility thermodynamic [6] [µg/mL] | IC50 ([1]; read-out: p-S6 IC50) [nM] | IC50 ([1]; read-out: p-S6) [nM]
1 | Cc1ncccc1-n1c(=O)n(C)c2cnc3ccc(-c4ccc5nccn5c4)cc3c21 [Example 2.23, 8-Imidazo[1,2-a]pyridin-6-yl-3-methyl-1-(2-methyl-pyridin-3-yl)-1,3-dihydro-imidazo[4,5-c]quinolin-2-one] | 273 | −5.3 | 1060 | 64.1 | – | – | 37 | –
2 | COc1ncc(-c2ccc3ncc4c(c3c2)n(-c2ccc(C(C)(C)O)nc2C)c(=O)n4C)c(OC)n1 [Example 31.3, 8-(2,4-Dimethoxy-pyrimidin-5-yl)-1-[6-(1-hydroxy-1-methyl-ethyl)-2-methyl-pyridin-3-yl]-3-methyl-1,3-dihydro-imidazo[4,5-c]quinolin-2-one] | 132 | −4.1 | 26.4 | 5.3 | – | – | 1 | –
3 | CNc1ncc(-c2ccc3ncc4c(c3c2)n(-c2cncc(C)c2)c(=O)n4C)cn1 [Example 17.2, 3-Methyl-8-(2-methylamino-pyrimidin-5-yl)-1-(5-methyl-pyridin-3-yl)-1,3-dihydro-imidazo[4,5-c]quinolin-2-one] | 94.6 | – | 206 | 46.8 | – | – | 10 | –
4 | Cc1nc(N2CC[C@@H](O)C2)ccc1-n1c(=O)n(C)c2cnc3ccc(-c4cncc(C(C)(C)C#N)c4)cc3c21 [Example 34.5, 2-(5-{1-[6-((R)-3-Hydroxy-pyrrolidin-1-yl)-2-methyl-pyridin-3-yl]-3-methyl-2-oxo-2,3-dihydro-1H-imidazo[4,5-c]quinolin-8-yl}-pyridin-3-yl)-2-methyl-propionitrile] | 31 | – | 84.2 | 30.3 | – | – | 2 | –
5 | CCNc1cc(-c2ccc3ncc4c(c3c2)n(-c2ccc(N3CC[C@H](O)C3)nc2C)c(=O)n4C)cnc1CO [Example 32.6, 8-(5-Ethylamino-6-hydroxymethyl-pyridin-3-yl)-1-[6-((S)-3-hydroxy-pyrrolidin-1-yl)-2-methyl-pyridin-3-yl]-3-methyl-1,3-dihydro-imidazo[4,5-c]quinolin-2-one] | 39.7 | – | 83.2 | 24.3 | – | – | 8.6 | –

Second part, led by results:

Row | IC50 [2] [nM] | HT-Perm logPe pH6.8 [3] | IC50 [4] [nM] | IC50 [5] [nM] | HT-perm/logPe pH6.8 [3] | solubility thermodynamic [6] [µg/mL] | SMILES | IC50 ([1]; read-out: p-S6 IC50) [nM] | IC50 ([1]; read-out: p-S6) [nM]
6 | 34.6 | – | 113 | 7.36 | −4.3 | – | CCOc1ccc(-c2ccc3ncc4c(c3c2)n(-c2ccc(OC)nc2OC)c(=O)n4C)cn1 [Example 8.2, 1-(2,6-Dimethoxy-pyridin-3-yl)-8-(6-ethoxy-pyridin-3-yl)-3-methyl-1,3-dihydro-imidazo[4,5-c]quinolin-2-one] | – | 7.69
7 | – | – | – | 398 | – | > 469 | Cc1cccnc1-n1c(=O)n(C)c2cnc3ccc(-c4ccc(OCCCN(C)C)nc4)cc3c21 [Example 3.7, 8-[6-(3-Dimethylamino-propoxy)-pyridin-3-yl]-3-methyl-1-(3-methyl-pyridin-2-yl)-1,3-dihydro-imidazo[4,5-c]quinolin-2-one] | – | –
8 | < 4.57 | – | 19.5 | 4.57 | −3.8 | – | CNc1ccc(-c2ccc3ncc4c(c3c2)n(-c2ccc(OC)nc2OC)c(=O)n4C)cn1 [Example 8.3, 1-(2,6-Dimethoxy-pyridin-3-yl)-3-methyl-8-(6-methylamino-pyridin-3-yl)-1,3-dihydro-imidazo[4,5-c]quinolin-2-one] | – | 1.05
9 | 115 | −3.8 | 143 | 72.6 | – | – | COCCOc1cncc(-c2ccc3ncc4c(c3c2)n(-c2ccc(OC)nc2OC)c(=O)n4C)c1 [Example 8.8, 1-(2,6-Dimethoxy-pyridin-3-yl)-8-[5-(2-methoxy-ethoxy)-pyridin-3-yl]-3-methyl-1,3-dihydro-imidazo[4,5-c]quinolin-2-one] | 7 | –
10 | 11.7 | – | 92.1 | 5.01 | −3.8 | – | CCOc1ccc(-c2ccc3ncc4c(c3c2)n(-c2ccc(OC)nc2C)c(=O)n4C)cn1 [Example 11.1, 8-(6-Ethoxy-pyridin-3-yl)-1-(6-methoxy-2-methyl-pyridin-3-yl)-3-methyl-1,3-dihydro-imidazo[4,5-c]quinolin-2-one] | – | 10.6
